3 compounds from ChEMBL document CHEMBL1201862, “PubChem BioAssay data set” (2004) can be followed below.

The nature of assay [1]: inhibitors of intracellular T. cruzi replication, confirmation, NIH3T3 host cells, beta-gal luminescence (AID 2044).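 Further: intracellular parasites grown in NIH/3T3 mouse fibroblasts as host cells; luminescent beta-galactosidase reporter signal from transgenic T. cruzi replicating inside host cells; inhibitors lower the luminescence signal.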 It is filed as functional, cell-based.
Assay [2] has as its target Tyrosine-protein phosphatase non-receptor type 22 (Homo sapiens, UniProt Q9Y2R2). Format: functional.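 Further: confirmatory dose-response retesting of primary uHTS hits against LYP; potency is for inhibition of phosphatase activity.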
Assay [3] deals with T1, Replicative DNA helicase DnaB (Mycobacterium tuberculosis, UniProt P9WMR3).
T1 sequence (P9WMR3 whole entry): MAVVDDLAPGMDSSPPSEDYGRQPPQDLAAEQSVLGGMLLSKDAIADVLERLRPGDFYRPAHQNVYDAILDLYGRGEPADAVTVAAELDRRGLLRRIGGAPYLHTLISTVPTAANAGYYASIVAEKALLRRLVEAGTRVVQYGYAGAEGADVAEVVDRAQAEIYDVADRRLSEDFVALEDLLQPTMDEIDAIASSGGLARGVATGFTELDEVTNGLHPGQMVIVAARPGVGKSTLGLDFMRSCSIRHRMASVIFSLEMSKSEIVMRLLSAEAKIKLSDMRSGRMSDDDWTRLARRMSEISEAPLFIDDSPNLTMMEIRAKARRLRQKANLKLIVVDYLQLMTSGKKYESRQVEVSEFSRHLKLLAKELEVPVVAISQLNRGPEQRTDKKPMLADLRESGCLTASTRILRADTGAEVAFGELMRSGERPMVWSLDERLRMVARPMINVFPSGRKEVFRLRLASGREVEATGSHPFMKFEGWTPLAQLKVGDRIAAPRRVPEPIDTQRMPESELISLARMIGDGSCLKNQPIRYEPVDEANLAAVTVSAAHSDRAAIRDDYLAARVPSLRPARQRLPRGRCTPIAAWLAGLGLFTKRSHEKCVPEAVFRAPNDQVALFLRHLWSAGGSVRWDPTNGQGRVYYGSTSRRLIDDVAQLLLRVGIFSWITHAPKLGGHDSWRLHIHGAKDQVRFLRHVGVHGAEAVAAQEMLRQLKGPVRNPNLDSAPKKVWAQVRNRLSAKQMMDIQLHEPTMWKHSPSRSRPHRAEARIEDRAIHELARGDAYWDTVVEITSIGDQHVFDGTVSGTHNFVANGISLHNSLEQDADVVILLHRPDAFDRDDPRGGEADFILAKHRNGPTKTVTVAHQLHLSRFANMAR
The assay is described as follows: DnaB intein splicing inhibitors, dose response, biochemical, cell-free fluorescence (AID 449749). It is filed as functional.

The nature of assay [4]: inhibitors of CMV-promoter luciferase reporter, dose response, counter-screen for Pax8 inhibitor project, cell-based, HEK293, luminescence, dry powder (AID 743020). It is filed as functional. (In a reporter assay the amount or activity of a reporter protein is the signal.)
Assay [5] can be described thus: non-specific cell cytotoxicity, dose response, cytotoxicity control for PAX8 inhibitor project, plate reader, dry powder samples (AID 743021). Format: functional, cell-based.
Assay [6] deals with Tyrosine-protein kinase SYK (Homo sapiens, UniProt P43405). It is filed as functional.
For assay [7], the target named is Proto-oncogene tyrosine-protein kinase ROS (Homo sapiens, UniProt P08922). It is filed as functional.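 Further: ROS1 tested as one member of a kinome-wide kinase panel.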
Proto-oncogene tyrosine-protein kinase ROS, sequence (P08922 whole entry): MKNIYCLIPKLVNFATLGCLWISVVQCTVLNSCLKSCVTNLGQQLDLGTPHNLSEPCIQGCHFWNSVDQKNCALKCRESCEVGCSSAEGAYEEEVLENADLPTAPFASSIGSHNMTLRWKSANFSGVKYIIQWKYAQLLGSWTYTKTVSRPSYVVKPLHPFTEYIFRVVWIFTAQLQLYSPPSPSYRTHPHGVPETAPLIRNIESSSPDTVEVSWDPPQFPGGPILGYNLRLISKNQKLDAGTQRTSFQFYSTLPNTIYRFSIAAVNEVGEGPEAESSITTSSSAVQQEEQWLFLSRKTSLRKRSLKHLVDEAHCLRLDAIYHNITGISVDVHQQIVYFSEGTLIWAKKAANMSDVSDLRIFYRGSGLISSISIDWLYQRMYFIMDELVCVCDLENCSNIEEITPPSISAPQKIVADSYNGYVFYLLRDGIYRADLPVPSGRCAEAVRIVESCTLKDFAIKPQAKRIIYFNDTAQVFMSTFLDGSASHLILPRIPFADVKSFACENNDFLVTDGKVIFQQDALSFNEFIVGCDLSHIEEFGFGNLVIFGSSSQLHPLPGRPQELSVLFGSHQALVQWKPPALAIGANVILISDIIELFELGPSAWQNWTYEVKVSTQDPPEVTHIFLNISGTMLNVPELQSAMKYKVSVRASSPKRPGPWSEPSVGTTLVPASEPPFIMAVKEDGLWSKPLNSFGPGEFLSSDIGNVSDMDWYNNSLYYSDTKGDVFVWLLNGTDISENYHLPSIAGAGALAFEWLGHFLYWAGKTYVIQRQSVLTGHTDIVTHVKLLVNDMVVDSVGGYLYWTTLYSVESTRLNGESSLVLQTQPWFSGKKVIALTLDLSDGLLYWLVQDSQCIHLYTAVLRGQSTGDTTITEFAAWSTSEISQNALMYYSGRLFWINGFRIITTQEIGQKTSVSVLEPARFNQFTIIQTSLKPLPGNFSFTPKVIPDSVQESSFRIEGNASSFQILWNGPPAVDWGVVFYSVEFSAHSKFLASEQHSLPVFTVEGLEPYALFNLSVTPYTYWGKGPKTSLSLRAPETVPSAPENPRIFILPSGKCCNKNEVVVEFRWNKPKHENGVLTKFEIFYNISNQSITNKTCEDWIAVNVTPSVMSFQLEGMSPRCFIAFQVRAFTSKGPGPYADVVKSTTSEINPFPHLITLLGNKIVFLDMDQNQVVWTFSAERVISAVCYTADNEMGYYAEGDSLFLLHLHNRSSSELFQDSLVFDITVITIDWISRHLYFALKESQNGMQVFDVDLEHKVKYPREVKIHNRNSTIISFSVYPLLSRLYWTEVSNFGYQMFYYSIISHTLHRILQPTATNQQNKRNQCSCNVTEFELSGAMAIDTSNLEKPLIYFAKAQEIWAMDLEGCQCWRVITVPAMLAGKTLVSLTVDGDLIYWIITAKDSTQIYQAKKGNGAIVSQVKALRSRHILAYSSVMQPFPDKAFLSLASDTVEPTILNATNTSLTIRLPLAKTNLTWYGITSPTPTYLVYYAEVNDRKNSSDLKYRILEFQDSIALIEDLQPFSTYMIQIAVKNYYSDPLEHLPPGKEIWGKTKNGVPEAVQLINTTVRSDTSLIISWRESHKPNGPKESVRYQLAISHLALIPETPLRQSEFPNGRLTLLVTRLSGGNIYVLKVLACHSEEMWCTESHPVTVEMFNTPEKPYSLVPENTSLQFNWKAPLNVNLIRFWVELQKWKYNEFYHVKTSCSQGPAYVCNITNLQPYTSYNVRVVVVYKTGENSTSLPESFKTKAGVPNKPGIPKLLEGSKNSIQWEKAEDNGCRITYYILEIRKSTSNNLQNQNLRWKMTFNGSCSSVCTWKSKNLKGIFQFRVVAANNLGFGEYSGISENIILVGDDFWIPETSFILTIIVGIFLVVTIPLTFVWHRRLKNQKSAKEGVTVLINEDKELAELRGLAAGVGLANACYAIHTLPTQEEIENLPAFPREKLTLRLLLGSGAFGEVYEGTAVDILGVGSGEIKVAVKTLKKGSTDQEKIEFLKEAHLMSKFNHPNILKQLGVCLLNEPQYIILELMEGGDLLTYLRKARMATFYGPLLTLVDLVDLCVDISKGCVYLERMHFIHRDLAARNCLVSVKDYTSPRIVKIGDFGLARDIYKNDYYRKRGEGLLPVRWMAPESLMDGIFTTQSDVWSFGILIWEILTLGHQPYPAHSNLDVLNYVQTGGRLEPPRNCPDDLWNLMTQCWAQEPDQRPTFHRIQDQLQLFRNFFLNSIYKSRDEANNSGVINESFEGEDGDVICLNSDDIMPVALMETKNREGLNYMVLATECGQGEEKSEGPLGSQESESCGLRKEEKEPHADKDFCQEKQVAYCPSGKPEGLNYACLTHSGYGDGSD
Assay [8] addresses Proto-oncogene tyrosine-protein kinase Src (Homo sapiens, UniProt P12931). Format: functional.
Assay [9] addresses Insulin-like growth factor 1 receptor (Homo sapiens, UniProt P08069). As to the kind of experiment: Navigating the Kinome. Panel member name: IGF1R. It is filed as functional.
Another assay addresses Misshapen-like kinase 1 (Homo sapiens, UniProt Q8N4C8). Format: functional.
In assay [10] the target is Tyrosine-protein kinase Fer (Homo sapiens, UniProt P16591). Format: functional.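 Further: FER tested as one member of a kinome panel.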
Assay [11] concerns the target Tyrosine-protein kinase Fyn (Homo sapiens, UniProt P06241). Format: functional.
Assay [12] addresses Fibroblast growth factor receptor 3 (Homo sapiens, UniProt P22607). Format: functional.
Assay [13] concerns the target Dual specificity mitogen-activated protein kinase kinase 2 (Homo sapiens, UniProt P36507). As to the kind of experiment: Navigating the Kinome. Panel member name: MAP2K2. Format: functional.
Assay [14] deals with Tyrosine-protein kinase FRK (Homo sapiens, UniProt P42685). Format: functional.
Tyrosine-protein kinase FRK, sequence (P42685 whole entry): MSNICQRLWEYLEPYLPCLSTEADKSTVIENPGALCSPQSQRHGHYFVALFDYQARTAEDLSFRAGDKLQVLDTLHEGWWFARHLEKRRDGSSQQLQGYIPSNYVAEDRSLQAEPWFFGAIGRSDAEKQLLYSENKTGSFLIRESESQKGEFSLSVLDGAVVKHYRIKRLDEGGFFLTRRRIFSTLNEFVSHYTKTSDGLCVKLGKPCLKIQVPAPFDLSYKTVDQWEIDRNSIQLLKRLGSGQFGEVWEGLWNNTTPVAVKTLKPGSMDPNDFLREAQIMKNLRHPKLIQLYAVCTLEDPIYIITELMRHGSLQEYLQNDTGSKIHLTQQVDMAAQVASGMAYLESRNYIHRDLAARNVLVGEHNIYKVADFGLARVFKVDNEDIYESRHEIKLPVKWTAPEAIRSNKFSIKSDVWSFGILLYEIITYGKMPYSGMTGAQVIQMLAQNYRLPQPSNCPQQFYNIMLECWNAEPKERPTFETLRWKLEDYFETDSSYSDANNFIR
Assay [15] addresses T2, Sentrin-specific protease 7 (Homo sapiens, UniProt Q9BQF6).
T2 sequence (Q9BQF6 whole entry): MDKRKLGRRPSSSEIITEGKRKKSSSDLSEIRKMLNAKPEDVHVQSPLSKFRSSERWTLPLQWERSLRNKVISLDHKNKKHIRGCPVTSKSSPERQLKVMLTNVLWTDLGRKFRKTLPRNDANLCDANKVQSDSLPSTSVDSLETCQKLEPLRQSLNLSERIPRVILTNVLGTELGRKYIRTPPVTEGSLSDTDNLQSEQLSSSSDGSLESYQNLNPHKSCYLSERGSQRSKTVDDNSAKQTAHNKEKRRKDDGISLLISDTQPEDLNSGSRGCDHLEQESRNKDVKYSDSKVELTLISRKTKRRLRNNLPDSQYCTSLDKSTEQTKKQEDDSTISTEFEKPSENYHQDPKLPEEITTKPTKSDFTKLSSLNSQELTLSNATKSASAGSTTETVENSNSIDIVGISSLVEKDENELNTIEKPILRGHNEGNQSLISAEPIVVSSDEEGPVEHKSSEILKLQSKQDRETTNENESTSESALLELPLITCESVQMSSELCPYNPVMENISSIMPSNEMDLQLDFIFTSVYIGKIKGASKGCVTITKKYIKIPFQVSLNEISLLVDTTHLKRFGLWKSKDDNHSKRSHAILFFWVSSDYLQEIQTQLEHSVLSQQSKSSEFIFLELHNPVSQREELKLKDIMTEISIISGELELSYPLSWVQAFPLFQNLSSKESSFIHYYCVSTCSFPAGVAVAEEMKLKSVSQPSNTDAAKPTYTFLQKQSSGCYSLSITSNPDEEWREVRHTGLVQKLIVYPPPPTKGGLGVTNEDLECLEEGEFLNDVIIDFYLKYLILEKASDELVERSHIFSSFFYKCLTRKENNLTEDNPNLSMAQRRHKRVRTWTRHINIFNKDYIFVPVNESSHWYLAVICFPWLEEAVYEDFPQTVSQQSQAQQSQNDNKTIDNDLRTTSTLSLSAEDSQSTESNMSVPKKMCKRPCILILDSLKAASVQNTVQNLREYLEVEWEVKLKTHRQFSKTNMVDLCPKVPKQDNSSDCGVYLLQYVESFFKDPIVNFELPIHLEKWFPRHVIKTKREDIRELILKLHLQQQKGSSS
It is filed as functional.

The target of the next assay is Cytochrome P450 2C9 (Homo sapiens, UniProt P11712).
Cytochrome P450 2C9, sequence (P11712 whole entry): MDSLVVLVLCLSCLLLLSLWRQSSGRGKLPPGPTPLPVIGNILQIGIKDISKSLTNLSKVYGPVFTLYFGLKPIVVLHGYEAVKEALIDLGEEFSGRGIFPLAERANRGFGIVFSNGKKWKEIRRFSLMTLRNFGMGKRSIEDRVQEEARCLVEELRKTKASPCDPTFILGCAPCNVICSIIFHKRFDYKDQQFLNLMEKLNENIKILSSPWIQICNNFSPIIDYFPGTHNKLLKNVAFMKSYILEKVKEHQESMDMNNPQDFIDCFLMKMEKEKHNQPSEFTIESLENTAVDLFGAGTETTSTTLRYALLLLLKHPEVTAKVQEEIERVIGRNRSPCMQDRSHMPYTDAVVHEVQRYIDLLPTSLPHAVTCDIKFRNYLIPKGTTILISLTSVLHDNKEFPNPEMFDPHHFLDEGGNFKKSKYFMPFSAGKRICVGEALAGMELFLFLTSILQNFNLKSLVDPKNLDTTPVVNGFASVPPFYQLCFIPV

Activity calls are given as the source filed them.

Fibroblast growth factor receptor 3, sequence (P22607 whole entry): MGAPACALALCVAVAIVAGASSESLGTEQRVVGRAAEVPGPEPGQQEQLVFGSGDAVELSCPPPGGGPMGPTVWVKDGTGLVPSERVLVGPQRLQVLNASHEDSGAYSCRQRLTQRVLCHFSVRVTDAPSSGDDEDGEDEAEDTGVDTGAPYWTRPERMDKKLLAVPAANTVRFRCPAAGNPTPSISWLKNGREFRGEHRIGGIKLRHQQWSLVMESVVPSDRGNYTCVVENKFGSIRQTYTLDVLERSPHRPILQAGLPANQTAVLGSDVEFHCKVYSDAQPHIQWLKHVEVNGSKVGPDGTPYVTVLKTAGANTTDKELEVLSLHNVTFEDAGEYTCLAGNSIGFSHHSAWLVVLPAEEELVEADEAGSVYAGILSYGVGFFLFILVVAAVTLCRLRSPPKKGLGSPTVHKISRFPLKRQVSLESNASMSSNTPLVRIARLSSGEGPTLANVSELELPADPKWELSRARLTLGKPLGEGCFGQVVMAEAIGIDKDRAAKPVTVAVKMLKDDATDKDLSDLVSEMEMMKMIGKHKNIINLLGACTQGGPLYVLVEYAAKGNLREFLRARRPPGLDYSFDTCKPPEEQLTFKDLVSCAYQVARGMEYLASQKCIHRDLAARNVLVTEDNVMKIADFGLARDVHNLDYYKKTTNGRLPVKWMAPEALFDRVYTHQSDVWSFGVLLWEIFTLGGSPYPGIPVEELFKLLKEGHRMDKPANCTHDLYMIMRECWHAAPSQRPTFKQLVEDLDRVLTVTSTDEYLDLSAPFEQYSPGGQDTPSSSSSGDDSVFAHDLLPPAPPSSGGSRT
Proto-oncogene tyrosine-protein kinase Src, sequence (P12931 2-536 limits assumed): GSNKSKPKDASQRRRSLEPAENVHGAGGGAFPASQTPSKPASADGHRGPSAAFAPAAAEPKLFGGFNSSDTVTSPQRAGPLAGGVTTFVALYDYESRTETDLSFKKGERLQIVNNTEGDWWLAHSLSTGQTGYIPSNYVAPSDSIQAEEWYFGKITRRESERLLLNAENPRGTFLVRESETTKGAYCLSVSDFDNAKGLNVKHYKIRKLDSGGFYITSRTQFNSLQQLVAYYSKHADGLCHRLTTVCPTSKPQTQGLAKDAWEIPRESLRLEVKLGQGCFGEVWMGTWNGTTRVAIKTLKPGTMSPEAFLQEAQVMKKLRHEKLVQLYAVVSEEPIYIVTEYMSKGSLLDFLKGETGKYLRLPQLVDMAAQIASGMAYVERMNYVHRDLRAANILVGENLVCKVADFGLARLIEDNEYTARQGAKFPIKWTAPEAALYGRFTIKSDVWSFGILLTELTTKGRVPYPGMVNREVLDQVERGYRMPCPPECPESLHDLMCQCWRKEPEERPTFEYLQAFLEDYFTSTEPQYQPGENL
Dual specificity mitogen-activated protein kinase kinase 2, sequence (P36507 whole entry): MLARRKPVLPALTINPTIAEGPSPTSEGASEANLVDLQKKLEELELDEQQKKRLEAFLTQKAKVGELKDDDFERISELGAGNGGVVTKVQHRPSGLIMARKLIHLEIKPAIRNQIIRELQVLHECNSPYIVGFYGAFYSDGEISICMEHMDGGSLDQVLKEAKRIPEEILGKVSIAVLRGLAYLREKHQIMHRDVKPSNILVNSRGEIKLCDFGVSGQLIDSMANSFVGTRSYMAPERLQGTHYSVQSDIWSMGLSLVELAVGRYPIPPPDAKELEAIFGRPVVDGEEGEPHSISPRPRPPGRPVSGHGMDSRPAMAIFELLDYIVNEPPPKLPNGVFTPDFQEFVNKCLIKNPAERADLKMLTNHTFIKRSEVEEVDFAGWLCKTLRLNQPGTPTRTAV

Regarding `CCn1nc(/C=C/c2ccccc2)nc2c(=O)n(C)c(=O)nc1-2`, the EC50 in assay [1] was 789 nM (active). Further, the half-maximal inhibitory concentration (IC50) in assay [2] was 13 µM (active). In addition, the AC50 in assay [3] was 487 nM (active); in assay [4], < 704 nM (active); in [5], 12.7 µM (active).
On to `COc1cc2c(cc1Nc1nc(Nc3cccc(F)c3C(N)=O)c3cc[nH]c3n1)N(C(=O)CN(C)C)CC2`, for which the Ki in assay [6] was > 1.58 µM (inactive); in [7] it was 2.51 nM (active); in assay [8] it was > 2 µM (inactive); in assay [9], 2 nM (active); at Misshapen-like kinase 1 it was 3.98 µM (active); in assay [10] it was 1.58 nM (active). In addition, the Ki in [11] was > 6.31 µM (inactive); in assay [12] it was > 2 µM (inactive); in [13] it was > 3.98 µM (inactive); in assay [14], > 2.51 µM (inactive).
Regarding `CC(C)c1ccc(-c2nnn(CCC(=O)O)n2)cc1`, the half-maximal inhibitory concentration (IC50) in [15] was 7.22 µM (active). In addition, the AC50 at Cytochrome P450 2C9 was 31.6 µM (inconclusive).

The term EC50 denotes the midpoint of the concentration-response curve. The term IC50 denotes the midpoint of a concentration-inhibition curve. A word on the AC50: it is the concentration at which the activity in the assay is half-maximal. A word on the Ki: it is a dissociation constant, usually derived from enzyme kinetics or from competition with a known ligand.
